Measured values published in EP4725941A1, “ARYLAMIDE DERIVATIVE HAVING ANTITUMOR ACTIVITY” (priority 2020, dated 2021).
Where two headings read alike, the source gives them in different places.

Columns and labels:
BRAF = molecular target: T1, BRAF (Homo sapiens, UniProt P15056); assay: BRAF-inhibiting activity, time-resolved fluorescence-fluorescence resonance energy transfer assay; format: biochemical
T1 construct: purchased Eurofins Genomics KK; (BRAF); Thermo Fisher Scientific Inc. (MEK1)
Experimental: The BRAF-inhibiting activity of the compounds listed in Table 3 below was evaluated by the time-resolved fluorescence-fluorescence resonance energy transfer assay as described below.

A549 = assay: Cell proliferation-inhibiting activity (ATP in viable cells, CellTiter-Glo), A549; format: cell-based, human; conditions: A549, 96 h, read-out: A549 IC50
[1] = Human liver microsome stability; format: in vitro ADME; conditions: human liver microsomes, pH 7.4
NCI-H2122 = assay: Cell proliferation-inhibiting activity (ATP in viable cells, CellTiter-Glo), NCI-H2122; format: cell-based, human; conditions: NCI-H2122, 96 h, read-out: NCI-H2122 IC50
MEK1 = molecular target: T2, MEK1 (Homo sapiens, UniProt Q02750); assay: MEK1-inhibiting activity, fluorescent polarization method (CRAF/MEK1/ERK2 cascade, IMAP); format: biochemical
T2 construct: purchased Thermo Fisher Scientific Inc. (MEK1, CRAF); Carna Biosciences, Inc. (ERK2)
T2 sequence (Q02750 whole entry): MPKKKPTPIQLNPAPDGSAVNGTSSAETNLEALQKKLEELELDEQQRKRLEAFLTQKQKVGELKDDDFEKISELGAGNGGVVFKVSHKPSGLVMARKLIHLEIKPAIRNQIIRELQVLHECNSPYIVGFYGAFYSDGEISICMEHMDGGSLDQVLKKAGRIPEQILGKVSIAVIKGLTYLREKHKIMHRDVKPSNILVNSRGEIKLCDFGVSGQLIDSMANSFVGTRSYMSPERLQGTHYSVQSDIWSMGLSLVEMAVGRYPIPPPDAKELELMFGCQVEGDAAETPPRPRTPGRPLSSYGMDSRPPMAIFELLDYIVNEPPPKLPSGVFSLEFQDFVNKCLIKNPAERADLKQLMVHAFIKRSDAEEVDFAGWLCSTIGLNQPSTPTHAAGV
Experimental: The MEK1-inhibiting activity of the compounds listed in Table 3 below were evaluated by the fluorescent polarization method as described below.

[2] = human lung cancer cells, 4 days

T1 sequence (P15056 417-766 limits assumed): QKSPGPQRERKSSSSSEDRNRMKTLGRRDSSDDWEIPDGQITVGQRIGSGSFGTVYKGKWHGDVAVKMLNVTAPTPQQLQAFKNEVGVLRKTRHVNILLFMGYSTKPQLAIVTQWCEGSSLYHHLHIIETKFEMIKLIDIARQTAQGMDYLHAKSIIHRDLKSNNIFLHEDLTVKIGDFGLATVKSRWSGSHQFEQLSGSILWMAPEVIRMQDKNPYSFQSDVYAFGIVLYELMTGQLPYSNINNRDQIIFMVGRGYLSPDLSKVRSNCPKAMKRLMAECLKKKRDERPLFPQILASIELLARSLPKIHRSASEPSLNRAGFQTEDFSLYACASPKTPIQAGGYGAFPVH

CC(O)CNS(=O)(=O)Nc1nccc(Cc2cc(C(N)=O)c(Nc3ccc(I)cc3F)c(F)c2F)c1F (racemic) [Compound A-17, (+/-)-3,4-difluoro-5-[[3-fluoro-2-(2-hydroxypropylsulfamoylamino)pyridin-4-yl]methyl]-2-(2-fluoro-4-iodoanilino)benzamide]
IC50 (BRAF; Table 3; read-out: BRAF IC50): 4 nM | IC50 (A549; [2]): 53 nM | microsomal CLint at 0.99 µM [1]: 6 µL/min/mg | IC50 (NCI-H2122; [2]): 15 nM | IC50 (MEK1): 6 nM

CNS(=O)(=O)Nc1nccc(Cc2cc(C(=O)NOC(C)C)c(Nc3ccc(I)cc3F)c(F)c2F)c1F [Compound A-10, 3,4-Difluoro-2-(2-fluoro-4-iodoanilino)-5-[[3-fluoro-2-(methylsulfamoylamino)pyridin-4-yl]methyl]-N-propan-2-yloxybenzamide]
IC50 (BRAF; read-out: BRAF IC50; Table 3): 7 nM | IC50 (A549; [2]): 0.1 nM | microsomal CLint at 0.99 µM [1]: 89 µL/min/mg | IC50 (NCI-H2122; [2]): 0.2 nM | IC50 (MEK1; Table 3, read-out: MEK1 IC50): 5 nM

COCCNS(=O)(=O)Nc1nccc(Cc2cc(C(=O)NOC(C)C)c(Nc3ccc(I)cc3F)c(F)c2F)c1F [Compound A-11, 3,4-Difluoro-2-(2-fluoro-4-iodoanilino)-5-[[3-fluoro-2-(2-methoxyethylsulfamoylamino)pyridin-4-yl]methyl]-N-propan-2-yloxybenzamide]
IC50 (BRAF; read-out: BRAF IC50; Table 3): 9 nM | IC50 (A549; [2]): 1 nM | microsomal CLint at 0.99 µM [1]: 128 µL/min/mg | IC50 (NCI-H2122; [2]): 1 nM | IC50 (MEK1; Table 3, read-out: MEK1 IC50): 7 nM

C=Cc1ccc(Nc2c(C(N)=O)cc(Cc3ccnc(NS(=O)(=O)NC)c3F)c(F)c2F)c(F)c1 [Compound A-19, 2-(4-Ethenyl-2-fluoroanilino)-3,4-difluoro-5-[[3-fluoro-2-(methylsulfamoylamino)pyridin-4-yl]methyl]benzamide]
IC50 (BRAF; Table 3; read-out: BRAF IC50): 3 nM | IC50 (A549; Homo sapiens): 6 nM | microsomal CLint at 0.99 µM [1]: 35 µL/min/mg | IC50 (NCI-H2122; Homo sapiens): 5 nM | IC50 (MEK1; Table 3, read-out: MEK1 IC50): 30 nM

C#Cc1ccc(Nc2c(C(N)=O)cc(Cc3ccnc(NS(=O)(=O)NCCC)c3F)c(F)c2F)c(F)c1 [Compound A-20, 2-(4-ethynyl-2-fluoroanilino)-3,4-difluoro-5-[[3-fluoro-2-(propylsulfamoylamino)pyridin-4-yl]methyl]benzamide]
IC50 (BRAF; Table 3; read-out: BRAF IC50): 2 nM | IC50 (A549; Homo sapiens): 7 nM | microsomal CLint at 0.99 µM [1]: 14 µL/min/mg | IC50 (NCI-H2122; Homo sapiens): 6 nM | IC50 (MEK1; Table 3, read-out: MEK1 IC50): 23 nM

NC(=O)c1cc(Cc2ccnc(NS(=O)(=O)NCC3COC3)c2F)c(F)c(F)c1Nc1ccc(I)cc1F [Compound A-21, 3,4-difluoro-2-(2-fluoro-4-iodoanilino)-5-[[3-fluoro-2-(oxetan-3-ylmethylsulfamoylamino)pyridin-4-yl]methyl]benzamide]
IC50 (BRAF; read-out: BRAF IC50; Table 3): 4 nM | IC50 (A549; [2]): 31 nM | microsomal CLint at 0.99 µM [1]: 4 µL/min/mg | IC50 (NCI-H2122; [2]): 14 nM | IC50 (MEK1; Table 3, read-out: MEK1 IC50): 5 nM

CC1(NS(=O)(=O)Nc2nccc(Cc3cc(C(N)=O)c(Nc4ccc(I)cc4F)c(F)c3F)c2F)CC1 [Compound A-23, 3,4-Difluoro-2-(2-fluoro-4-iodoanilino)-5-[[3-fluoro-2-[(1-methylcyclopropyl)sulfamoylamino]pyridin-4-yl]methyl]benzamide]
IC50 (BRAF; read-out: BRAF IC50; Table 3): 5 nM | IC50 (A549; [2]): 5 nM | microsomal CLint at 0.99 µM [1]: < 1 µL/min/mg | IC50 (NCI-H2122; [2]): 1 nM | IC50 (MEK1; Table 3, read-out: MEK1 IC50): 35 nM

C#Cc1ccc(Nc2c(C(N)=O)cc(Cc3ccnc(NS(=O)(=O)NC)c3F)c(F)c2F)c(F)c1 [Compound A-26, 2-(4-Ethynyl-2-fluoroanilino)-3,4-difluoro-5-[[3-fluoro-2-(methylsulfamoylamino)pyridin-4-yl]methyl]benzamide]
IC50 (BRAF; Table 3; read-out: BRAF IC50): 9 nM | IC50 (A549; Homo sapiens): 7 nM | microsomal CLint at 0.99 µM [1]: 13 µL/min/mg | IC50 (NCI-H2122; Homo sapiens): 2 nM | IC50 (MEK1; Table 3, read-out: MEK1 IC50): 5 nM

CNS(=O)(=O)Nc1nccc(Cc2cc(C(N)=O)c(Nc3ccc(Br)cc3F)c(F)c2F)c1F [Compound A-27, 2-(4-bromo-2-fluoroanilino)-3,4-difluoro-5-[[3-fluoro-2-(methylsulfamoylamino)pyridin-4-yl]methyl]benzamide]
IC50 (BRAF; read-out: BRAF IC50; Table 3): 7 nM | IC50 (A549; [2]): 24 nM | microsomal CLint at 0.99 µM [1]: 4 µL/min/mg | IC50 (NCI-H2122; [2]): 10 nM | IC50 (MEK1; Table 3, read-out: MEK1 IC50): 32 nM

NC(=O)c1cc(Cc2ccnc(NS(=O)(=O)NC34CC(C3)C4)c2F)c(F)c(F)c1Nc1ccc(I)cc1F [Compound A-28, 5-[[2-(1-Bicyclo[1.1.1]pentanylsulfamoylamino)-3-fluoropyridin-4-yl]methyl]-3,4-difluoro-2-(2-fluoro-4-iodoanilino)benzamide]
IC50 (BRAF; read-out: BRAF IC50; Table 3): 9 nM | IC50 (A549; [2]): 5 nM | microsomal CLint at 0.99 µM [1]: 11 µL/min/mg | IC50 (NCI-H2122; [2]): 2 nM | IC50 (MEK1; Table 3, read-out: MEK1 IC50): 13 nM

NC(=O)c1cc(Cc2ccnc(NS(=O)(=O)NC3CCOCC3)c2F)c(F)c(F)c1Nc1ccc(I)cc1F [Compound A-29]
IC50 (BRAF; Table 3; read-out: BRAF IC50): 11 nM | IC50 (A549; [2]): 28 nM | microsomal CLint at 0.99 µM [1]: 18 µL/min/mg | IC50 (NCI-H2122; [2]): 6 nM | IC50 (MEK1; Table 3, read-out: MEK1 IC50): 14 nM

NC(=O)c1cc(Cc2ccnc(NS(=O)(=O)NC3CCC3)c2F)c(F)c(F)c1Nc1ccc(I)cc1F [Compound A-32, 5-[[2-(Cyclobutylsulfamoylamino)-3-fluoropyridin-4-yl]methyl]-3,4-dif luoro-2-(2-fluoro-4-iodoanilino)benzamide]
IC50 (BRAF; read-out: BRAF IC50; Table 3): 6 nM | IC50 (A549; [2]): 7 nM | microsomal CLint at 0.99 µM [1]: 19 µL/min/mg | IC50 (NCI-H2122; [2]): 5 nM | IC50 (MEK1; Table 3, read-out: MEK1 IC50): 25 nM

CCS(=O)(=O)Nc1nccc(Cc2cc(C(N)=O)c(Nc3ccc(I)cc3F)c(F)c2F)c1F [Compound A-38, 5-[[2-(Ethylsulfonylamino)-3-fluoropyridin-4-yl]methyl]-3,4-difluoro-2-(2-fluoro-4-iodoanilino)benzamide]
IC50 (BRAF; read-out: BRAF IC50; Table 3): 3 nM | IC50 (A549; [2]): 66 nM | microsomal CLint at 0.99 µM [1]: 17 µL/min/mg | IC50 (NCI-H2122; [2]): 15 nM | IC50 (MEK1; Table 3, read-out: MEK1 IC50): 16 nM

CCCS(=O)(=O)Nc1nccc(Cc2cc(C(N)=O)c(Nc3ccc(I)cc3F)c(F)c2F)c1F [Compound B-8]
IC50 (BRAF; read-out: BRAF IC50; Table 3): 7 nM | IC50 (A549; [2]): 95 nM | microsomal CLint at 0.99 µM [1]: 24 µL/min/mg | IC50 (NCI-H2122; [2]): 14 nM | IC50 (MEK1; Table 3, read-out: MEK1 IC50): 47 nM

NC(=O)c1cc(Cc2ccnc(NS(=O)(=O)NCCO)c2F)c(F)c(F)c1Nc1ccc(I)cc1F [Compound B-9, 3,4-Difluoro-5-[[3-fluoro-2-(2-hydroxyethylsulfamoylamino)pyridin-4-yl]methyl]-2-(2-fluoro-4-iodoanilino)benzamide]
IC50 (BRAF; read-out: BRAF IC50; Table 3): 4 nM | IC50 (A549; [2]): 10 nM | microsomal CLint at 0.99 µM [1]: 11 µL/min/mg | IC50 (NCI-H2122; [2]): 7 nM | IC50 (MEK1; Table 3, read-out: MEK1 IC50): 2 nM

COCCNS(=O)(=O)Nc1cc(Cc2cc(C(N)=O)c(Nc3ccc(I)cc3F)c(F)c2F)ccn1 [Compound C-2, 3,4-Difluoro-2-(2-fluoro-4-iodoanilino)-5-[[2-(2-methoxyethylsulfamoylamino)pyridin-4-yl]methyl]benzamide]
IC50 (BRAF; read-out: BRAF IC50; Table 3): 2 nM | IC50 (A549; [2]): 16 nM | microsomal CLint at 0.99 µM [1]: 17 µL/min/mg | IC50 (NCI-H2122; [2]): 7 nM | IC50 (MEK1; Table 3, read-out: MEK1 IC50): 104 nM

CNS(=O)(=O)Nc1cc(Cc2cc(C(N)=O)c(Nc3ccc(I)cc3F)c(F)c2F)ccn1 [Compound C-3, 3,4-difluoro-2-(2-fluoro-4-iodoanilino)-5-[[2-(methylsulfamoylamino)pyridin-4-yl]methyl]benzamide]
IC50 (BRAF; read-out: BRAF IC50; Table 3): 3 nM | IC50 (A549; [2]): 1 nM | microsomal CLint at 0.99 µM [1]: 9 µL/min/mg | IC50 (NCI-H2122; [2]): 0.4 nM | IC50 (MEK1; Table 3, read-out: MEK1 IC50): 12 nM

CNS(C)(=O)=Nc1cc(Cc2cc(C(N)=O)c(Nc3ccc(I)cc3F)c(F)c2F)ccn1 (stereo not drawn) [Compound C-4, 3,4-Difluoro-2-(2-fluoro-4-iodoanilino)-5-[[2-[[methyl-(methylamino)-oxo-λ6-sulfanylidene]amino]pyridin-4-yl]methyl]benzamide]
IC50 (BRAF; read-out: BRAF IC50; Table 3): 23 nM | IC50 (A549; [2]): 7 nM | microsomal CLint at 0.99 µM [1]: 40 µL/min/mg | IC50 (NCI-H2122; [2]): 43 nM | IC50 (MEK1; Table 3, read-out: MEK1 IC50): 224 nM
